The values below come from USRE47689E1, “Compounds for treating spinal muscular atrophy” (PTC Therapeutics, Inc., priority 2011, dated 2019).

Read-outs that look alike come from different tables or passages of the source.

The subject of data set [1] is Smn protein. Nature of the data set: Smn protein assay in cultured cells (SMN HTRF). As to conditions: 48 hours; for EC1.5x (concentration giving 1.5-fold Smn protein increase): SMA Type 1 patient fibroblast cells (GM03813), 7-point concentration curve, SMN HTRF, concentration producing 1.5 times Smn protein vs DMSO vehicle control, read-out: EC1.5x for Smn protein expression; for maximum fold (Fold) increase of Smn protein: SMA patient fibroblast cells, 7-point concentration data, fold increase relative to vehicle control (SMN HTRF). The class given is cell-based, human. The essentials:
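Smn in SMA fibroblast lysates, measured by anti-SMN HTRF after 48 h compound exposure; EC1.5x from fold change over vehicle.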

Data set [2] deals with SMN2 minigene (full length SMN2 minigene mRNA containing SMN2 exon 7). The data set is described as follows: SMN2 minigene mRNA splicing RT-qPCR assay in cultured cells. The format is cell-based, human. Conditions: Homo sapiens, HEK293-H, read-out: EC1.5x for production of full length SMN2 mRNA. The essentials: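 Full-length SMN2 minigene mRNA (exon 7 included), minigene-specific and not endogenous SMN, quantified by RT-qPCR multiplexed with GAPDH in stably transfected HEK293H cells after 24 h compound exposure at 37° C. Abundance from efficiency-corrected Ct, normalized to GAPDH and vehicle; EC1.5x reported as star bins.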

Setting [3] is: HEK293H cells stably transfected with SMN2-A minigene, 24 hours, 7-point concentration curve, 1.5-fold relative to vehicle-treated cells.

As for `Cc1cn2cc(-c3cc4ccc(N5CCN(C)[C@H](C)C5)cc4oc3=O)ccc2n1` [Compound 661, 7-[(3R)-3,4-dimethylpiperazin-1-yl]-3-(2-methylimidazo[1,2-a]pyridin-6-yl)-2H-chromen-2-one], the melting point (usually the temperature, or range, at which the solid turns liquid) was in the range of 206 to 209 °C. Further, in data set [1], the EC1.5x (concentration giving 1.5-fold Smn protein increase) was < 300 nM and the “maximum fold (Fold) increase of Smn protein” value (“maximum fold (Fold) increase” for short) is reported as “***** (fold increase >1.65)”. In addition, the EC (1.5-fold) in data set [2] (setting [3]) is < 0.1 µM.
`CN1CCCN(c2ccc3cc(-c4cn5cccnc5n4)c(=O)oc3c2)CC1` [Compound 118, 3-(imidazo[1,2-a]pyrimidin-2-yl)-7-(4-methyl-1,4-diazepan-1-yl)-2H-chromen-2-one] registered a melting point of 252 to 254 °C. Besides, in data set [1], the EC1.5x (concentration giving 1.5-fold Smn protein increase) was < 300 nM and the “maximum fold (Fold) increase” value was “***** (fold increase >1.65)”. For the same compound, the EC (1.5-fold) in data set [2] (setting [3]) fell in the range of 0.1 to 0.3 µM.
In turn, `CCN1CCN(c2ccc3cc(-c4cccc(OC)n4)c(=O)oc3c2)CC1` [Compound 360, 7-(4-ethylpiperazin-1-yl)-3-(6-methoxypyridin-2-yl)-2H-chromen-2-one] yielded a melting point of 145 to 147 °C. For the same compound, the “maximum fold (Fold) increase” value in data set [1] is “* (maximum fold increase of ≤1.2)”. Further, the EC (1.5-fold) in data set [2] (setting [3]) lay in the range of 1 to 3 µM.
The compound `Cc1cn2cc(-c3cc4ccc(N5CCN6CCCCC6C5)cc4oc3=O)nc2cn1` (stereo not shown) [Compound 635, 3-(6-methylimidazo[1,2-a]pyrazin-2-yl)-7-(octahydro-2H-pyrido[1,2-a]pyrazin-2-yl)-2H-chromen-2-one] displayed a melting point of 275 to 277 °C. For the same compound, in data set [1], the EC1.5x (concentration giving 1.5-fold Smn protein increase) was < 300 nM; the “maximum fold (Fold) increase” value was “**** (fold increase between >1.5 and ≤1.65)”. Also, in data set [2] (setting [3]), the EC (1.5-fold) was < 0.1 µM.
With `CCN1CCN(c2ccc3cc(-c4cc5cnc(C)cn5c4)c(=O)oc3c2)CC1` [Compound 640, 7-(4-ethylpiperazin-1-yl)-3-(3-methylpyrrolo[1,2-a]pyrazin-7-yl)-2H-chromen-2-one], the melting point is 208 to 210 °C. In data set [1], the EC1.5x (concentration giving 1.5-fold Smn protein increase) was < 300 nM; the “maximum fold (Fold) increase” value is “**** (fold increase between >1.5 and ≤1.65)”. In data set [2] (setting [3]), the EC (1.5-fold) is < 0.1 µM.
For the compound `O=c1oc2cc(N3CCNCC3)ccc2cc1-c1ccncc1F` [Compound 126, 3-(3-fluoropyridin-4-yl)-7-(piperazin-1-yl)-2H-chromen-2-one], the melting point was in the range of 202 to 204 °C. Besides, the “maximum fold (Fold) increase” value in data set [1] is listed as “* (maximum fold increase of ≤1.2)”. Also, the EC (1.5-fold) in data set [2] (24 h) was in the range of 3 to 30 µM.
The compound `Cc1cn2cc(-c3cc4ccc(N5CCCN(C)CC5)cc4oc3=O)ccc2n1` [Compound 653, 7-(4-methyl-1,4-diazepan-1-yl)-3-(2-methylimidazo[1,2-a]pyridin-6-yl)-2H-chromen-2-one] gave a melting point of 175 to 178 °C. The “maximum fold (Fold) increase” value in data set [1] was “*** (fold increase between >1.35 and ≤1.5)”. In data set [2] (setting [3]), the EC (1.5-fold) lay within 0.1 to 0.3 µM.
For the compound `C[C@H]1CN(c2ccc3cc(-c4ccc(N(C)C)nc4)c(=O)oc3c2)CCN1` [Compound 548, 3-[6-(dimethylamino)pyridin-3-yl]-7-[(3S)-3-methylpiperazin-1-yl]-2H-chromen-2-one], the melting point was in the range of 194 to 196 °C. For the same compound, the “maximum fold (Fold) increase” value in data set [1] is reported as “* (maximum fold increase of ≤1.2)”. In addition, in data set [2] (setting [3]), the EC (1.5-fold) is 3 to 30 µM.
Regarding `Cc1cn2cc(-c3cc4ccc(N5CCNCC5)cc4oc3=O)nc2s1` [Compound 96, 3-(2-methylimidazo[2,1-b][1,3]thiazol-6-yl)-7-(piperazin-1-yl)-2H-chromen-2-one], the melting point is > 310 °C. In data set [1], the EC1.5x (concentration giving 1.5-fold Smn protein increase) is 3000 to 10000 nM; the “maximum fold (Fold) increase” value is “*** (fold increase between >1.35 and ≤1.5)”. Further, the EC (1.5-fold) in data set [2] (setting [3]) is 0.1 to 0.3 µM.
Consider `Cc1cn2cc(-c3cc4ccc(N5CCN(C)[C@@H](C)C5)cc4oc3=O)ccc2n1` [Compound 675, 7-[(3S)-3,4-dimethylpiperazin-1-yl]-3-(2-methylimidazo[1,2-a]pyridin-6-yl)-2H-chromen-2-one], for which the melting point lay within 205 to 207 °C. Besides, in data set [1], the EC1.5x (concentration giving 1.5-fold Smn protein increase) fell in the range of 1000 to 3000 nM; the “maximum fold (Fold) increase” value was “**** (fold increase between >1.5 and ≤1.65)”. Also, the EC (1.5-fold) in data set [2] (setting [3]) was < 0.1 µM.
As for `CCc1cc(C)cn2cc(-c3cc4ccc(N5CCNCC5)cc4oc3=O)nc12` [Compound 334, 3-(8-ethyl-6-methylimidazo[1,2-a]pyridin-2-yl)-7-(piperazin-1-yl)-2H-chromen-2-one], the melting point is 198 to 208 °C. For the same compound, in data set [1], the “maximum fold (Fold) increase” value is on record as “* (maximum fold increase of ≤1.2)”. Also, the EC (1.5-fold) in data set [2] (setting [3]) was in the range of 0.1 to 0.3 µM.
The matching figures for `Cc1ccn2cc(-c3cc4ccc(NC5CCNCC5)cc4oc3=O)nc2c1` [Compound 495, 3-(7-methylimidazo[1,2-a]pyridin-2-yl)-7-(piperidin-4-ylamino)-2H-chromen-2-one]: 232 to 239 °C, “* (maximum fold increase of ≤1.2)” and 1 to 3 µM.
`CCN(CC)Cc1ccc2cc(-c3nc4ccccc4s3)c(=O)oc2c1` [Compound 57, 3-(1,3-benzothiazol-2-yl)-7-[(diethylamino)methyl]-2H-chromen-2-one]: the melting point is 116 to 119 °C. Moreover, in data set [1], the “maximum fold (Fold) increase” value is “** (fold increase between >1.2 and ≤1.35)”. Besides, the EC (1.5-fold) in data set [2] (setting [3]) is 1 to 3 µM.
With `O=c1oc2cc(N3CCCNCC3)ccc2cc1-c1cn2ccc(C(F)(F)F)cc2n1` [Compound 275, 7-(1,4-diazepan-1-yl)-3-[7-(trifluoromethyl)imidazo[1,2-a]pyridin-2-yl]-2H-chromen-2-one], the melting point was 253 to 262 °C. Further, the “maximum fold (Fold) increase” value in data set [1] is listed as “* (maximum fold increase of ≤1.2)”. Further, the EC (1.5-fold) in data set [2] (setting [3]) lay in the range of 0.3 to 1 µM.
`COc1ccc(-c2cc3ccc(N4CCN[C@@H](C)C4)cc3oc2=O)cc1F` [Compound 545, 3-(3-fluoro-4-methoxyphenyl)-7-[(3S)-3-methylpiperazin-1-yl]-2H-chromen-2-one] had a melting point of 141 to 143 °C. Also, the “maximum fold (Fold) increase” value in data set [1] is “*** (fold increase between >1.35 and ≤1.5)”. The EC (1.5-fold) in data set [2] (setting [3]) is 0.1 to 0.3 µM.
With `CN(C)CCN(C)c1ccc2cc(-c3nc4ccccc4s3)c(=O)oc2c1` [Compound 146, 3-(1,3-benzothiazol-2-yl)-7-{[2-(dimethylamino)ethyl](methyl)amino}-2H-chromen-2-one], the melting point fell in the range of 155 to 157 °C. The “maximum fold (Fold) increase” value in data set [1] is recorded as “* (maximum fold increase of ≤1.2)”. Besides, the EC (1.5-fold) in data set [2] (setting [3]) was in the range of 0.3 to 1 µM.
Consider `CCC1CN(c2ccc3cc(-c4cn5cc(C)nc(C)c5n4)c(=O)oc3c2)CCN1` (stereo not shown) [Compound 665, 3-(6,8-dimethylimidazo[1,2-a]pyrazin-2-yl)-7-(3-ethylpiperazin-1-yl)-2H-chromen-2-one], for which the melting point was in the range of 211 to 215 °C. In data set [1], the EC1.5x (concentration giving 1.5-fold Smn protein increase) is < 300 nM and the “maximum fold (Fold) increase” value is recorded as “***** (fold increase >1.65)”. The EC (1.5-fold) in data set [2] (setting [3]) is < 0.1 µM.
